Measured values: PubChem BioAssay (NCI)
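Exposure lasted 48 hours, with cells grown in 96-well plates and compounds tested at five concentrations. The concentration for full growth arrest is given as TGI.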

How the values were obtained:
Experiment in all cases: DTP human tumour cell line panel, 48 h
[1] = test system: 786-0 renal
[2] = test system: A498 renal
[3] = test system: A549 NSCLC
[4] = test system: ACHN renal
[5] = test system: BT-549 breast
[6] = test system: CAKI-1 renal
[7] = test system: CCRF-CEM leukemia
[8] = test system: COLO 205 colon
[9] = test system: DU-145 prostate
[10] = test system: EKVX NSCLC
[11] = test system: HCC-2998 colon
[12] = test system: HCT-116 colon
[13] = test system: HCT-15 colon
[14] = test system: HOP-62 NSCLC
[15] = test system: HOP-92 NSCLC
[16] = test system: HS 578T breast
[17] = test system: HT29 colon
[18] = test system: IGROV1 ovarian
[19] = test system: K-562 leukemia
[20] = test system: KM12 colon
[21] = test system: LOX IMVI melanoma
[22] = test system: M14 melanoma
[23] = test system: MALME-3M melanoma
[24] = test system: MCF7 breast
[25] = test system: MDA-MB-231 breast
[26] = test system: MDA-MB-435
[27] = test system: MDA-N
[28] = test system: MOLT-4 leukemia
[29] = test system: NCI-H226 lung
[30] = test system: NCI-H23 lung
[31] = test system: NCI-H460 lung
[32] = test system: NCI-H522 lung
[33] = test system: NCI/ADR-RES ovarian
[34] = test system: OVCAR-3 ovarian
[35] = test system: OVCAR-4 ovarian
[36] = test system: OVCAR-5 ovarian
[37] = test system: OVCAR-8 ovarian
[38] = test system: PC-3 prostate
[39] = test system: RPMI-8226 leukemia
[40] = test system: RXF 393 renal
[41] = test system: SF-268 CNS
[42] = test system: SF-295 CNS
[43] = test system: SF-539 CNS
[44] = test system: SK-MEL-2 melanoma
[45] = test system: SK-MEL-28 melanoma
[46] = test system: SK-MEL-5 melanoma
[47] = test system: SK-OV-3 ovarian
[48] = test system: SN12C renal
[49] = test system: SNB-19 CNS
[50] = test system: SNB-75 CNS
[51] = test system: SR leukemia
[52] = test system: SW-620 colon
[53] = test system: T-47D breast
[54] = test system: TK-10 renal
[55] = test system: U251 CNS
[56] = test system: UACC-257 melanoma
[57] = test system: UACC-62 melanoma
[58] = test system: UO-31 renal

**Q.** Which results are given for `C[C@]1(O)CC(=O)c2c(c(-c3ccc4cc5c(c(O)c4c3O)C(=O)C[C@@](C)(O)C5)c3cccc(O)c3c2O)C1`?
**A.** TGI [1]: 17.1 µM; TGI [2]: 16.4 µM; TGI [3]: 23.8 µM; TGI [4]: 18 µM; TGI [5]: 18.6 µM; TGI [6]: 18.2 µM; TGI [7]: > 100 µM; TGI [8]: 3.3 µM; TGI [9]: 29 µM; TGI [10]: 24.7 µM; TGI [11]: 16.4 µM; TGI [12]: 79.7 µM; TGI [13]: 11.4 µM; TGI [14]: 10.9 µM; TGI [15]: 8.72 µM; TGI [16]: 88 µM; TGI [17]: 20 µM; TGI [18]: 22.8 µM; TGI [19]: > 100 µM; TGI [20]: 11.7 µM; TGI [21]: 26.6 µM; TGI [22]: 29.8 µM; TGI [23]: 27.1 µM; TGI [24]: > 100 µM; TGI [25]: 19.3 µM; TGI [26]: 41 µM; TGI [27]: 19.4 µM; TGI [28]: > 100 µM; TGI [29]: 21.9 µM; TGI [30]: 12.9 µM; TGI [31]: 11.3 µM; TGI [32]: 13.5 µM; TGI [33]: 25.4 µM; TGI [34]: 17.2 µM; TGI [35]: 21.1 µM; TGI [36]: 25.3 µM; TGI [37]: 18.5 µM; TGI [38]: 13.2 µM; TGI [39]: 47.8 µM; TGI [40]: 17.8 µM; TGI [41]: 17.9 µM; TGI [42]: 18.6 µM; TGI [43]: 6.45 µM; TGI [44]: 6.22 µM; TGI [45]: 23.2 µM; TGI [46]: 14 µM; TGI [47]: 24.4 µM; TGI [48]: 15.8 µM; TGI [49]: 23.2 µM; TGI [50]: 19.3 µM; TGI [51]: > 100 µM; TGI [52]: 47 µM; TGI [53]: 14.4 µM; TGI [54]: 28 µM; TGI [55]: 12.3 µM; TGI [56]: 30.8 µM; TGI [57]: 27 µM; TGI [58]: 14.8 µM
